RP-LC retention time data for 79 compounds are collected here from the METLIN SMRT retention time set (Domingo-Almenara et al. 2019).

The data set is described as follows: gradient 5% acetonitrile 3 min, to 50% in 2 min, to 85% in 15 min, held 3 min, 100 µL/min. Particulars: column: Zorbax Extend-C18 2.1 x 50 mm; eluents: water / acetonitrile, 0.1% formic acid. In outline: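 Mixtures of ~100 pure standards were chromatographed on a Zorbax Extend-C18 column (2.1 × 50 mm, 1.8 μm) at 100 μL/min using water and acetonitrile, each with 0.1% formic acid. Detection used a quadrupole time-of-flight mass spectrometer in positive and negative ionization mode, and data collection spanned 3 months. Retention time was obtained from adduct peaks picked computationally and each checked manually.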
Compound `O=C1[C@H]2CN(Cc3cccc(F)c3)C[C@H]2C(=O)N1Cc1ccc2c(c1)OCO2` registered an RP-LC retention time of 800 s.

For `CCn1c(C)c(CCC(=O)NCCOC)c(=O)n2nc(-c3ccccc3)nc12`, the RP-LC retention time came out at 665 s.

`CCOC(=O)N1CCC2(CC1)N=C(c1ccc(Cl)cc1)CC(c1cccc(OCC)c1O)N2` (centres undefined) showed an RP-LC retention time of 871 s.

For `CC(=O)N1CCCc2cc(S(=O)(=O)CCC(=O)N3CCN(c4cc(C)ccc4C)CC3)ccc21`, the RP-LC retention time came to 936 s.

On to `Cc1ccc2nc(C)cc(C(=O)NCC(C)C)c2c1`, for which the RP-LC retention time came to 631 s.

As to `CC(C)Cn1cc(CCNC(=O)Nc2cccc(Cl)c2)c2cccnc21`, the RP-LC retention time stood at 895 s.

On to `CCc1cccc(N2C(=O)CN(S(C)(=O)=O)CC2(C)C(=O)NCc2ccc(C)cc2)c1` (centres undefined), for which the RP-LC retention time amounted to 905 s.

The compound `CSc1ccc(CNC(=O)CC2c3ncccc3C(=O)N2c2ccccc2)cc1` (centres undefined) showed an RP-LC retention time of 752 s.

`O=C(CCc1csc(NC(=O)NC2CCCCC2)n1)NCc1ccc2c(c1)OCO2` displayed an RP-LC retention time of 718 s.

Take `CC(C)N1CCC2(CC1)CN(C(=O)NCc1ccco1)Cc1ccccc1O2`: the RP-LC retention time worked out at 650 s.

As to `c1ccc(Cn2cc(-c3noc(-c4ccccc4)n3)nn2)cc1`, the RP-LC retention time stood at 814 s.

`C=CCn1c(C)c(CC(=O)NC(C)CC)c(=O)n2nc(-c3ccccc3)nc12` (centres undefined) displayed an RP-LC retention time of 818 s.

In turn, `CCCNC(=O)C1CC(=O)N(c2ccc3c(c2)CCN3C(C)=O)C1` (centres undefined) yielded an RP-LC retention time of 621 s.

In the case of `Cc1ccc(-c2nc3ncccn3c2Nc2ccccc2)cc1`, the RP-LC retention time is 714 s.

As to `Cc1c(C(=O)N2CCN(C)CC2)cnn1-c1cc(-c2nc(C3CC3)no2)ccn1`, the RP-LC retention time was 630 s.

`Clc1ccc(-c2csc(Nc3ccccc3)n2)cc1Cl` displayed an RP-LC retention time of 1300 s.

For the compound `Cc1ccc(-n2nc(CO)c(C(=O)NC(C)C)n2)cc1C`, the RP-LC retention time amounted to 983 s.

The compound `CCC(=O)N1CCc2sc(C(=O)NCc3ccc(F)cc3)cc2C1` returned an RP-LC retention time of 750 s.

On to `O=C(NCCc1c[nH]c2ccccc12)c1csc(NS(=O)(=O)c2cccs2)n1`, for which the RP-LC retention time turned out to be 740 s.

`CCn1nnc2cc(-c3noc(CN4C(=O)COc5ccccc54)n3)ccc21` gave an RP-LC retention time of 845 s.

As to `O=C(Nc1cccc(F)c1)N1CCCC1c1nc(-c2ccc(F)cc2F)no1` (centres undefined), the RP-LC retention time is 998 s.

On to `O=C(C1CCN(S(=O)(=O)c2ccc(-c3noc(-c4ccccn4)n3)cc2)CC1)N1CCCC1`, for which the RP-LC retention time came out at 792 s.

In the case of `O=C(NC1CC1)C1CCN(C(=O)c2ncn3c2COC(c2ccc(F)cc2)C3)CC1` (centres undefined), the RP-LC retention time was 630 s.

Compound `c1cc(CSc2cc(N3CCCC3)ncn2)ccn1` displayed an RP-LC retention time of 536 s.

As to `CC(C)Cn1cc(CCNS(=O)(=O)c2ccccc2Cl)c2cccnc21`, the RP-LC retention time worked out at 922 s.

`COCCNC(=O)N1CCCn2nc(-c3ccc(C(F)(F)F)cc3)cc2C1` showed an RP-LC retention time of 839 s.

`COCCNc1c(-c2ccccc2)nc2sc(C(=O)NCc3cccnc3)c(C)n12` gave an RP-LC retention time of 611 s.

Take `CN(C)c1ccc(CNC(=O)CN2CCN(C(=O)Nc3ccc(Br)cc3)CC2=O)cc1`: the RP-LC retention time was 611 s.

In turn, `COc1ccccc1CNC(=O)C(=O)NCc1ccsc1` registered an RP-LC retention time of 796 s.

For `CCc1nc2cc(N3CCCC(C(=O)NCCN4CCCC4)C3)cnc2nc1CC` (centres undefined), the RP-LC retention time was 601 s.

On to `COCCn1cc(CCNC(=O)Nc2ccc(F)cc2F)c2cccnc21`, for which the RP-LC retention time came to 729 s.

For `O=C(CCc1c(-c2ccccc2)nc2ccccn12)NCc1cccc(Br)c1`, the RP-LC retention time stood at 691 s.

`Cc1ccn2cc(-c3ccc(NC(=O)c4ccc(C(C)(C)C)cc4)cc3)nc2n1`: the RP-LC retention time was 803 s.

`Cc1cc(C)c(C)c(S(=O)(=O)N2CCCC2c2nc(-c3ccccc3)no2)c1C` (centres undefined): the RP-LC retention time was 1330 s.

Regarding `CCOC(=O)C1CCN(c2nc3ccccc3n2Cc2cc(C)ccc2C)CC1`, the RP-LC retention time amounted to 858 s.

`COCCCNC(=O)c1ccc(OCc2nnc(C(=O)Nc3ccccc3F)s2)cc1` registered an RP-LC retention time of 806 s.

The compound `Cn1cc(-c2cc3n(n2)CCCN3C(=O)CCC(=O)N2CCCCC2)c2ccccc21` registered an RP-LC retention time of 753 s.

The compound `c1ccc(-c2nc3nccc(-c4cccc5ccccc45)n3n2)cc1` showed an RP-LC retention time of 995 s.

`CCc1nc(OCC(=O)NCc2ccc(OC)cc2)c2ccccc2n1`: the RP-LC retention time was 746 s.

`CC1CCCN(CCCNC(=O)c2nnc(-c3ccc(S(=O)(=O)N4CCOCC4)cc3)o2)C1` (centres undefined) showed an RP-LC retention time of 634 s.

Take `CC(C)CCn1nc(-c2nc(-c3cccc(Cl)c3)no2)ccc1=O`: the RP-LC retention time stood at 1310 s.

With `CC(CCNC(=O)c1cc2c(-c3cccs3)nn(-c3ccccc3)c2n1C)N1CCCC1` (centres undefined), the RP-LC retention time turned out to be 726 s.

`Cc1nnc2ccc(-c3noc(CCc4ccccc4)n3)cn12` yielded an RP-LC retention time of 1140 s.

Consider `O=C(Nc1cccc(Cl)c1)N1CCc2nc[nH]c2C1`, for which the RP-LC retention time is 597 s.

The compound `COc1cc(NC(=O)Cn2c(N3CCOCC3)nc(C)cc2=O)cc(OC)c1` registered an RP-LC retention time of 655 s.

For the compound `COc1ccccc1N1CCN(c2cc(SCC(=O)Nc3ccc(Cl)cc3F)ncn2)CC1`, the RP-LC retention time stood at 1260 s.

Take `COC(=O)C(C)NC(=O)NCc1cccn1Cc1cc(C)ccc1C` (centres undefined): the RP-LC retention time came out at 885 s.

Take `O=C(N[C@H](Cc1ccccc1)C(=O)NCc1cscn1)c1ccccc1F`: the RP-LC retention time turned out to be 734 s.

As for `COc1cccc(CCC(=O)Nc2ccc3c(c2)Sc2ncccc2C(=O)N3C)c1`, the RP-LC retention time was determined as 1210 s.

As for `CCCOc1cc(N2CCN(C(=O)CC(C)C)CC2)nc(C)n1`, the RP-LC retention time came to 597 s.

The compound `CC(C)(C)c1csc(-c2csc(S(=O)(=O)NCc3ccc(Cl)cc3)c2)n1` came in with an RP-LC retention time of 1340 s.

As for `Cc1cc(S(=O)(=O)N2CCC(n3cnnc3C3CC3)CC2)ccc1Cl`, the RP-LC retention time was determined as 784 s.

On to `Cc1sc2ccn(Cc3ccc(F)cc3)c(=O)c2c1C(=O)NC1CC1`, for which the RP-LC retention time was determined as 759 s.

As to `Cc1cccc(NC(=O)N2CCN(c3nc(C)cc(Nc4ccccc4)n3)CC2)c1`, the RP-LC retention time is 733 s.

`CC(=O)N1CCc2c(c(CNC(=O)Cc3c(C)noc3C)nn2C)C1` came in with an RP-LC retention time of 570 s.

For the compound `Cc1cc2c(c(=O)n(-c3ccc(F)cc3)c(=O)n2CC(=O)Nc2cccc(Br)c2)n1C`, the RP-LC retention time was 861 s.

Compound `CCn1cc(C)c(C(=O)O)c1CC(=O)NCCN1CCCc2ccccc21` gave an RP-LC retention time of 711 s.

`CC(C)n1c(N2CCN(C(=O)Cc3ccc(F)cc3)CC2)cc(=O)n(C(C)C)c1=O` had an RP-LC retention time of 818 s.

Take `COC(=O)c1cc(S(=O)(=O)N2CCCC2C(=O)Nc2cccc(Br)c2)cn1C` (centres undefined): the RP-LC retention time turned out to be 963 s.

With `COc1ccc(NC(=O)C2CCCN(S(=O)(=O)c3cc(-c4noc(C)n4)cs3)C2)cc1Cl` (centres undefined), the RP-LC retention time was found to be 991 s.

Take `CCOC(=O)N1CCN(C(=O)Cn2cnc(-c3ccc(OC)cc3)cc2=O)CC1`: the RP-LC retention time was 652 s.

The compound `O=C(NCc1ccc2c(c1)OCO2)C1COC2(CCCCC2)N1C(=O)c1cccc(F)c1` (centres undefined) yielded an RP-LC retention time of 845 s.

Turning to `O=C(Cc1nnc(-c2ccc3ncccc3c2)o1)NCc1ccccc1`, the RP-LC retention time turned out to be 672 s.

Turning to `CCOC(=O)c1c(C)[nH]c(C(=O)N2CCCC(C(=O)NCc3ccc(OC)cc3)C2)c1C` (centres undefined), the RP-LC retention time stood at 780 s.

In turn, `Cc1cccc(-c2nc(CNC(=O)C(C)(C)C)no2)c1` gave an RP-LC retention time of 826 s.

Consider `Cc1cn(C)c(CC(=O)N2CCCCCC2)c1C(=O)O`, for which the RP-LC retention time was determined as 664 s.

`COc1ccc(C(=O)Cn2c(=O)n(Cc3ccc4c(c3)OCO4)c(=O)c3ncccc32)cc1` came in with an RP-LC retention time of 819 s.

`CCCN(c1ccc(F)cc1)c1nc(C(=O)OCC)nc2ccccc12` came in with an RP-LC retention time of 1080 s.

Turning to `CCOC(=O)c1cc(S(=O)(=O)N2CCCC2C(=O)N2CCN(c3ccccn3)CC2)cn1C` (centres undefined), the RP-LC retention time amounted to 600 s.

Consider `Cc1ccccc1NC(=O)N1CCC(c2nc(C(=O)N3CCCC3)c(C)o2)CC1`, for which the RP-LC retention time was determined as 732 s.

The compound `Cc1ccccc1NC(=O)C1CCN(c2nc(C3CCC3)nc3csc(C)c23)CC1` gave an RP-LC retention time of 757 s.

Compound `Cc1c(NC(=O)c2ccccc2-c2ccccc2C(=O)O)c(=O)n(-c2ccccc2)n1C` yielded an RP-LC retention time of 681 s.

With `Cc1cccc(-c2noc(C3CCCN3S(=O)(=O)c3ccc(C)c(Cl)c3)n2)c1` (centres undefined), the RP-LC retention time amounted to 1270 s.

Take `COC(=O)c1ccc(C(=O)Nc2nnc(Cc3ccc(C)cc3)o2)cc1`: the RP-LC retention time was determined as 768 s.

In the case of `CC(CCc1ccccc1)NC(=O)CCC(=O)N1CCc2c(c(C(=O)N3CCOCC3)nn2C)C1` (centres undefined), the RP-LC retention time was 679 s.

Take `CN1CCCCCCN(C(=O)c2cnccn2)[C@H]2CCC[C@H]2C1=O`: the RP-LC retention time worked out at 649 s.

Regarding `CC(C)C(=O)NCCN1CCN(c2ccc(F)cc2)CC1`, the RP-LC retention time turned out to be 561 s.

With `Nc1nc(CN2CCN(c3ccccn3)CC2)nc(N2CCCCC2)n1`, the RP-LC retention time came out at 561 s.

`CCN(CC)S(=O)(=O)c1cccc(-c2cn3ccc(C)cc3n2)c1` showed an RP-LC retention time of 656 s.
